{"source": "patent US20250186437A1", "about": "“CARBOLINE COMPOUNDS AND USE THEREOF” (PTC Therapeutics, Inc., priority 2021, published 2025)"}
{"tested_on": "MOLM-13 cells", "test": "MOLM-13 Cell Proliferation Assay (indicator of DHODH inhibition)", "type": "cell-based", "conditions": "Homo sapiens, 72 Hours of culture, CellTiter-Glo, no uridine", "description": "The following assay was conducted to measure proliferation of MOLM-13 cells in the presence of each compound studied. This assay was included as an indicator of DHODH inhibition, as growth of MOLM-13 cells is known to depend on synthesis of pyrimidines using the de novo pathway, which can be blocked by inhibition of DHODH. • 1. MOLM-13 cells were cultured in RPMI 1640 medium+10% Fetal Bovine Serum (FBS). Only low passage cells (<20) were used for the compound tests • 2. On day 1, Log-phase growing Molm-13 Cells were counted and diluted to 10^5 cells/mL in RPMI 1640 medium+10% FBS • 3. 100 μL of diluted MOLM-13 cells in 96 well white plates were seeded, for a final density of 10^4 cells/well. • 4. 0.5 μL of pre-diluted 200× compounds or DMSO control was added to each well. The final DMSO concentration was 0.5%. • 5. After 72 Hours of culture at 37° C., 5% CO2, the plates were taken out and cooled to RT, then 50 μL CellTiter-Glo® (Promega) was added, and the composition was mixed at RT for 10 minutes. • 6. The plates were then read by ViewLux (Speed-fast, Gain-High, Bining-1X, 5 seconds).", "units": {"IC50": "nM"}}
{"smiles": "Cc1ccnc(N2CCc3c([nH]c4cc(F)c(Cl)cc34)C2c2ccc(C#N)cc2)n1", "note": "(stereo not shown) [Compound 61, 4-[6-chloro-7-fluoro-2-(4-methylpyrimidin-2-yl)-2,3,4,9-tetrahydro-1H-pyrido[3,4-b]indol-1-yl]benzonitrile]", "IC50": 35.2}
{"smiles": "Fc1c(Cl)ccc2[nH]c3c(c12)CCN(c1ncc(Cl)cn1)C3c1ccc(C(F)(F)F)cc1", "note": "(stereo not shown) [Compound 62, 6-chloro-2-(5-chloropyrimidin-2-yl)-5-fluoro-1-[4-(trifluoromethyl)phenyl]-2,3,4,9-tetrahydro-1H-pyrido[3,4-b]indole]", "IC50": 24.7}
{"smiles": "Cc1ccnc(N2CCc3c([nH]c4cc(F)c(Cl)cc34)C2c2cccc(F)c2F)n1", "note": "(stereo not shown) [Compound 63, 6-chloro-1-(2,3-difluorophenyl)-7-fluoro-2-(4-methylpyrimidin-2-yl)-2,3,4,9-tetrahydro-1H-pyrido[3,4-b]indole]", "IC50": 13.2}
{"smiles": "N#Cc1ccc(C2c3[nH]c4cc(F)c(Cl)cc4c3CCN2c2nccc(C#N)n2)cc1", "note": "(stereo not shown) [Compound 64, 2-[6-chloro-1-(4-cyanophenyl)-7-fluoro-1,3,4,9-tetrahydro-2H-pyrido[3,4-b]indol-2-yl]pyrimidine-4-carbonitrile]", "IC50": 67.5}
{"smiles": "Cc1ccc(C2c3[nH]c4cc(F)c(Cl)cc4c3CCN2c2nc(C)cc(C)n2)cc1", "note": "(stereo not shown) [Compound 66, 6-chloro-2-(4,6-dimethylpyrimidin-2-yl)-7-fluoro-1-(4-methylphenyl)-2,3,4,9-tetrahydro-1H-pyrido[3,4-b]indole]", "IC50": 9.7}
{"smiles": "Fc1cnc(N2CCc3c([nH]c4ccc(Cl)c(F)c34)C2c2ccc(C(F)(F)F)cc2)nc1", "note": "(stereo not shown) [Compound 67, 6-chloro-5-fluoro-2-(5-fluoropyrimidin-2-yl)-1-[4-(trifluoromethyl)phenyl]-2,3,4,9-tetrahydro-1H-pyrido[3,4-b]indole]", "IC50": 19.1}
{"smiles": "N#Cc1ccnc(N2CCc3c([nH]c4cc(F)c(Cl)cc34)C2c2cccc(F)c2F)n1", "note": "(stereo not shown) [Compound 68, 2-[6-chloro-1-(2,3-difluorophenyl)-7-fluoro-1,3,4,9-tetrahydro-2H-pyrido[3,4-b]indol-2-yl]pyrimidine-4-carbonitrile]", "IC50": 8.8}
{"smiles": "N#Cc1ccc(C2c3[nH]c4cc(F)c(Cl)cc4c3CCN2c2nccc(Br)n2)cc1", "note": "(stereo not shown) [Compound 69, 4-[2-(4-bromopyrimidin-2-yl)-6-chloro-7-fluoro-2,3,4,9-tetrahydro-1H-pyrido[3,4-b]indol-1-yl]benzonitrile]", "IC50": 10.6}
{"smiles": "Cc1nc(N2CCc3c([nH]c4ccc(Cl)c(F)c34)C2c2ccc(Cl)cc2)ncc1F", "note": "(stereo not shown) [Compound 70, 6-chloro-1-(4-chlorophenyl)-5-fluoro-2-(5-fluoro-4-methylpyrimidin-2-yl)-2,3,4,9-tetrahydro-1H-pyrido[3,4-b]indole]", "IC50": 6.7}
{"smiles": "C=Cc1ccc(C2c3[nH]c4ccc(Cl)cc4c3CCN2c2ncc(F)cn2)cc1", "note": "(stereo not shown) [Compound 71, 6-chloro-1-(4-ethenylphenyl)-2-(5-fluoropyrimidin-2-yl)-2,3,4,9-tetrahydro-1H-pyrido[3,4-b]indole]", "IC50": 19.3}
{"smiles": "Fc1c(Cl)ccc2[nH]c3c(c12)CCN(c1nccc(C(F)(F)F)n1)C3c1ccc(Cl)cc1", "note": "(stereo not shown) [Compound 73, 6-chloro-1-(4-chlorophenyl)-5-fluoro-2-[4-(trifluoromethyl)pyrimidin-2-yl]-2,3,4,9-tetrahydro-1H-pyrido[3,4-b]indole]", "IC50": 4.1}
{"smiles": "Fc1c(Cl)ccc2[nH]c3c(c12)CCN(c1nccc(C(F)(F)F)n1)C3c1ccc(C(F)(F)F)cc1", "note": "(stereo not shown) [Compound 74, 6-chloro-5-fluoro-1-[4-(trifluoromethyl)phenyl]-2-[4-(trifluoromethyl)pyrimidin-2-yl]-2,3,4,9-tetrahydro-1H-pyrido[3,4-b]indole]", "IC50": 5.7}
{"smiles": "Fc1cc2[nH]c3c(c2cc1Cl)CCN(c1nccc(C(F)(F)F)n1)C3c1ccc(C(F)(F)F)cc1", "note": "(stereo not shown) [Compound 75, 6-chloro-7-fluoro-1-[4-(trifluoromethyl)phenyl]-2-[4-(trifluoromethyl)pyrimidin-2-yl]-2,3,4,9-tetrahydro-1H-pyrido[3,4-b]indole]", "IC50": 12.5}
{"smiles": "Cc1ccc(C2c3[nH]c4ccc(Cl)c(F)c4c3CCN2c2nccc(C(F)(F)F)n2)cc1", "note": "(stereo not shown) [Compound 76, 6-chloro-5-fluoro-1-(4-methylphenyl)-2-[4-(trifluoromethyl)pyrimidin-2-yl]-2,3,4,9-tetrahydro-1H-pyrido[3,4-b]indole]", "IC50": 2.5}
{"smiles": "Fc1cc2[nH]c3c(c2cc1Cl)CCN(c1nccc(Cl)n1)C3c1cccc(F)c1F", "note": "(stereo not shown) [Compound 77, 6-chloro-2-(4-chloropyrimidin-2-yl)-1-(2,3-difluorophenyl)-7-fluoro-2,3,4,9-tetrahydro-1H-pyrido[3,4-b]indole]", "IC50": 7.4}
{"smiles": "OCc1ccc(C2c3[nH]c4cc(F)c(Cl)cc4c3CCN2c2ncc(F)cn2)cc1", "note": "(stereo not shown) [Compound 78, {4-[6-chloro-7-fluoro-2-(5-fluoropyrimidin-2-yl)-2,3,4,9-tetrahydro-1H-pyrido[3,4-b]indol-1-yl]phenyl}methanol]", "IC50": 46.9}
{"smiles": "C=Cc1ccc(C2c3[nH]c4cc(F)c(Cl)cc4c3CCN2c2ncc(F)cn2)cc1", "note": "(stereo not shown) [Compound 79, 6-chloro-1-(4-ethenylphenyl)-7-fluoro-2-(5-fluoropyrimidin-2-yl)-2,3,4,9-tetrahydro-1H-pyrido[3,4-b]indole]", "IC50": 20.7}
{"smiles": "Fc1cc2[nH]c3c(c2cc1Cl)CCN(c1ncc(Cl)cn1)C3c1ccc(C(F)(F)F)cc1", "note": "(stereo not shown) [Compound 80, 6-chloro-2-(5-chloropyrimidin-2-yl)-7-fluoro-1-[4-(trifluoromethyl)phenyl]-2,3,4,9-tetrahydro-1H-pyrido[3,4-b]indole]", "IC50": 31}
{"smiles": "Cc1ccnc(N2CCc3c([nH]c4cc(F)c(Cl)cc34)C2c2ccc(C(F)(F)F)cc2)n1", "note": "(stereo not shown) [Compound 81, 6-chloro-7-fluoro-2-(4-methylpyrimidin-2-yl)-1-[4-(trifluoromethyl)phenyl]-2,3,4,9-tetrahydro-1H-pyrido[3,4-b]indole]", "IC50": 40.1}
{"smiles": "Cc1ccc(C2c3[nH]c4ccc(F)c(F)c4c3CCN2c2ncc(F)cn2)cc1", "note": "(stereo not shown) [Compound 82, 5,6-difluoro-2-(5-fluoropyrimidin-2-yl)-1-(4-methylphenyl)-2,3,4,9-tetrahydro-1H-pyrido[3,4-b]indole]", "IC50": 86.5}
{"smiles": "Fc1ccc(C2c3[nH]c4ccc(F)c(F)c4c3CCN2c2ncc(F)cn2)cc1", "note": "(stereo not shown) [Compound 83, 5,6-difluoro-1-(4-fluorophenyl)-2-(5-fluoropyrimidin-2-yl)-2,3,4,9-tetrahydro-1H-pyrido[3,4-b]indole]", "IC50": 259}
{"smiles": "Cc1ccc(C2c3[nH]c4ccc(F)c(F)c4c3CCN2c2ncc(Cl)cn2)cc1", "note": "(stereo not shown) [Compound 84, 2-(5-chloropyrimidin-2-yl)-5,6-difluoro-1-(4-methylphenyl)-2,3,4,9-tetrahydro-1H-pyrido[3,4-b]indole]", "IC50": 65.6}
{"smiles": "Fc1ccc(C2c3[nH]c4ccc(F)c(F)c4c3CCN2c2ncc(Cl)cn2)cc1", "note": "(stereo not shown) [Compound 85, 2-(5-chloropyrimidin-2-yl)-5,6-difluoro-1-(4-fluorophenyl)-2,3,4,9-tetrahydro-1H-pyrido[3,4-b]indole]", "IC50": 162}
{"smiles": "COC(=O)c1ccnc(N2CCc3c([nH]c4ccc(Cl)c(F)c34)C2c2ccc(Cl)cc2)n1", "note": "(stereo not shown) [Compound 87, methyl 2-[6-chloro-1-(4-chlorophenyl)-5-fluoro-1,3,4,9-tetrahydro-2H-pyrido[3,4-b]indol-2-yl]pyrimidine-4-carboxylate]", "IC50": 7.9}
{"smiles": "Cc1cc(C(F)(F)F)nc(N2CCc3c([nH]c4cc(F)c(Cl)cc34)C2c2ccc(C#N)cc2)n1", "note": "(stereo not shown) [Compound 88, 4-{6-chloro-7-fluoro-2-[4-methyl-6-(trifluoromethyl)pyrimidin-2-yl]-2,3,4,9-tetrahydro-1H-pyrido[3,4-b]indol-1-yl}benzonitrile]", "IC50": 2.3}
{"smiles": "N#Cc1ccc(C2c3[nH]c4ccc(Cl)c(F)c4c3CCN2c2nccc(C(F)(F)F)n2)cc1", "note": "(stereo not shown) [Compound 89, 4-{6-chloro-5-fluoro-2-[4-(trifluoromethyl)pyrimidin-2-yl]-2,3,4,9-tetrahydro-1H-pyrido[3,4-b]indol-1-yl}benzonitrile]", "IC50": 5.7}
{"smiles": "Cc1ccnc(N2CCc3c([nH]c4ccc(Cl)c(F)c34)C2c2ccc(F)cc2)n1", "note": "(stereo not shown) [Compound 90, 6-chloro-5-fluoro-1-(4-fluorophenyl)-2-(4-methylpyrimidin-2-yl)-2,3,4,9-tetrahydro-1H-pyrido[3,4-b]indole]", "IC50": 29.1}
{"smiles": "Cc1ncc(C2c3[nH]c4cc(F)c(Cl)cc4c3CCN2c2ncc(F)cn2)cn1", "note": "(stereo not shown) [Compound 91, 6-chloro-7-fluoro-2-(5-fluoropyrimidin-2-yl)-1-(2-methylpyrimidin-5-yl)-2,3,4,9-tetrahydro-1H-pyrido[3,4-b]indole]", "IC50": 89.9}
{"smiles": "Cc1ncc(C2c3[nH]c4cc(F)c(Cl)cc4c3CCN2c2nccc(C(F)(F)F)n2)cn1", "note": "(stereo not shown) [Compound 92, 6-chloro-7-fluoro-1-(2-methylpyrimidin-5-yl)-2-[4-(trifluoromethyl)pyrimidin-2-yl]-2,3,4,9-tetrahydro-1H-pyrido[3,4-b]indole]", "IC50": 34.6}
{"smiles": "Cc1cc(C)nc(N2CCc3c([nH]c4cc(F)c(Cl)cc34)C2c2ccc(C#N)cc2)n1", "note": "(stereo not shown) [Compound 93, 4-[6-chloro-2-(4,6-dimethylpyrimidin-2-yl)-7-fluoro-2,3,4,9-tetrahydro-1H-pyrido[3,4-b]indol-1-yl]benzonitrile]", "IC50": 9.7}
{"smiles": "Cc1ccnc(N2CCc3c([nH]c4cc(F)c(Cl)cc34)C2c2cnc(N(C)C)nc2)n1", "note": "(stereo not shown) [Compound 94, 5-[6-chloro-7-fluoro-2-(4-methylpyrimidin-2-yl)-2,3,4,9-tetrahydro-1H-pyrido[3,4-b]indol-1-yl]-N,N-dimethylpyrimidin-2-amine]", "IC50": 22.2}
